Assays:
[1] = xn = mol fraction of the nth substance listed; details: 100 kPa, Liquid; for viscosity: Falling or rolling sphere viscometry; for mass density: Vibrating tube method; for electrical conductivity: Direct current cell with electrodes
[2] = refractive index (Na D-line) (dimensionless); xn = mol fraction of the nth substance listed; details: 298.15 K, 100 kPa, Liquid, Standard Abbe refractometry

CN(C)C(=[NH2+])N(C)C.c1c[n-]cn1 [1,1,3,3-tetramethylguanidinium imidazol-1-ide] + O
[1]
Details	electrical conductivity [S/m]	mass density [kg/m3]	viscosity [mPa·s]
293.15 K, x1 = 0.0511	–	1023.04	3.157
293.15 K, x1 = 0.0991	–	1024.53	5.561
293.15 K, x1 = 0.207	–	1025.54	10.23
293.15 K, x1 = 0.3005	–	1019.92	14.29
293.15 K, x1 = 0.3834	–	1015.77	15.79
293.15 K, x1 = 0.4978	–	1010.24	16.03
293.15 K, x1 = 0.6356	–	1005.44	14.5
293.15 K, x1 = 0.8019	–	1001.45	12.12
293.15 K, x1 = 0.8984	–	999.17	10.19
293.15 K, x1 = 1	–	997.25	8.952
298.15 K, x1 = 0.002	1.524	–	–
298.15 K, x1 = 0.003	1.88	–	–
298.15 K, x1 = 0.0039	2.47	–	–
298.15 K, x1 = 0.005	2.88	–	–
298.15 K, x1 = 0.006	3.19	–	–
298.15 K, x1 = 0.008	3.36	–	–
298.15 K, x1 = 0.01	3.67	–	–
298.15 K, x1 = 0.0149	3.96	–	–
298.15 K, x1 = 0.0199	3.93	–	–
298.15 K, x1 = 0.0299	3.72	–	–
298.15 K, x1 = 0.0398	3.22	–	–
298.15 K, x1 = 0.0499	2.7	–	–
298.15 K, x1 = 0.0511	–	1019.97	2.519
298.15 K, x1 = 0.0599	2.31	–	–
298.15 K, x1 = 0.0699	1.97	–	–
298.15 K, x1 = 0.0799	1.711	–	–
298.15 K, x1 = 0.0893	1.517	–	–
298.15 K, x1 = 0.0991	–	1020.57	4.311
298.15 K, x1 = 0.0996	1.31	–	–
298.15 K, x1 = 0.1495	0.767	–	–
298.15 K, x1 = 0.1994	0.53	–	–
298.15 K, x1 = 0.207	–	1021.21	7.645
298.15 K, x1 = 0.3005	–	1015.51	11.07
298.15 K, x1 = 0.3504	0.272	–	–
298.15 K, x1 = 0.3834	–	1011.35	12.14
298.15 K, x1 = 0.4978	–	1005.81	12.35
298.15 K, x1 = 0.4989	0.215	–	–
298.15 K, x1 = 0.6356	–	1001	11.28
298.15 K, x1 = 0.6512	0.195	–	–
298.15 K, x1 = 0.8019	–	997.07	9.561
298.15 K, x1 = 0.8447	0.205	–	–
298.15 K, x1 = 0.8984	–	994.72	8.186
298.15 K, x1 = 1	0.218	992.8	7.287
303.15 K, x1 = 0.0511	–	1016.67	2.148
303.15 K, x1 = 0.0991	–	1016.58	3.601
303.15 K, x1 = 0.207	–	1016.83	6.045
303.15 K, x1 = 0.3005	–	1011.06	8.853
303.15 K, x1 = 0.3834	–	1006.9	9.629
303.15 K, x1 = 0.4978	–	1001.35	9.809
303.15 K, x1 = 0.6356	–	996.54	9.023
303.15 K, x1 = 0.8019	–	992.72	7.768
303.15 K, x1 = 0.8984	–	990.26	6.72
303.15 K, x1 = 1	–	988.35	6.044
308.15 K, x1 = 0.0511	–	1013.28	1.854
308.15 K, x1 = 0.0991	–	1012.53	3.021
308.15 K, x1 = 0.207	–	1012.42	4.956
308.15 K, x1 = 0.3005	–	1006.59	7.201
308.15 K, x1 = 0.3834	–	1002.43	7.806
308.15 K, x1 = 0.4978	–	996.88	7.952
308.15 K, x1 = 0.6356	–	992.07	7.354
308.15 K, x1 = 0.8019	–	988.36	6.42
308.15 K, x1 = 0.8984	–	985.81	5.611
308.15 K, x1 = 1	–	983.9	5.097
313.15 K, x1 = 0.0511	–	1009.78	1.617
313.15 K, x1 = 0.0991	–	1008.4	2.592
313.15 K, x1 = 0.207	–	1007.97	4.126
313.15 K, x1 = 0.3005	–	1002.09	5.934
313.15 K, x1 = 0.3834	–	997.94	6.428
313.15 K, x1 = 0.4978	–	992.4	6.542
313.15 K, x1 = 0.6356	–	987.61	6.07
313.15 K, x1 = 0.8019	–	983.97	5.363
313.15 K, x1 = 0.8984	–	981.34	4.756
313.15 K, x1 = 1	–	979.46	4.358

[2]
Details	refractive index
x1 = 0.0511	1.3973
x1 = 0.0991	1.4278
x1 = 0.207	1.4589
x1 = 0.3005	1.4722
x1 = 0.3834	1.4787
x1 = 0.4978	1.485
x1 = 0.6356	1.4889
x1 = 0.8019	1.4922
x1 = 0.8984	1.4923
x1 = 1	1.4943
